Laboratory results reported in patent US10392368B2, “Pyrazolo and triazolo bicyclic compounds as JAK kinase inhibitors” (THERAVANCE BIOPHARMA R&D IP, LLC, priority 2017, dated 2019).

How the values were obtained:
[1] = Colon and plasma mouse pharmacokinetics; type: in vivo; settings: mouse, colon tissue / plasma; male Balb/c mice, 10 mg/kg PO; 0.5, 2 and 6 hours; read-out: colon to plasma ratio (colon AUC to plasma AUC)
Protocol: 6 male Balb/c mice were administered 10 mg/kg of compound in 1% HPMC+0.1% Tween-80 by PO administration. At 0.5, 2 and 6 hours after dose administration, animals were anesthetized, and terminal blood samples were collected by cardiac puncture, followed by collection of colon contents and colon tissue.
Blood samples were collected into K2EDTA and stored on wet ice until processed to plasma by centrifugation (12000 rpm at 4° C.). Plasma samples were transferred to cluster tubes and placed on dry ice prior to freezer storage. The colon contents from each animal were collected at each terminal blood collection time point. The colon tissues were flushed with saline and patted dry. The colon and colon content tissues were homogenized using sterile water containing 0.1% formic acid 9:1 (water:tissue, v/w). The homogenized tissues and colon contents were transferred to cluster tubes and placed on dry ice prior to freezer storage. All samples were analyzed using LC/MS/MS against analytical standards.
The composite pharmacokinetic parameters of the compounds were determined by non-compartmental analysis using Phoenix WinNonlin Version 6 (Certara, St. Louis, Mo.) and using mean values from 2 animals/time point. For plasma concentrations below the quantification limit (BQL), the lowest concentration measurable or the BLOQ (below limit of quantification) was used.
A colon to plasma ratio was determined as the ratio of the colon AUC to the plasma AUC.

[2] = target: T1, Tyk2 (Homo sapiens, UniProt P29597); experiment: Biochemical Tyk2 kinase assay (LanthaScreen); settings: read-out: Tyk 2 (pKi) (converted)
T1 construct: GST; purchased Life Technologies
T1 sequence (P29597 whole entry): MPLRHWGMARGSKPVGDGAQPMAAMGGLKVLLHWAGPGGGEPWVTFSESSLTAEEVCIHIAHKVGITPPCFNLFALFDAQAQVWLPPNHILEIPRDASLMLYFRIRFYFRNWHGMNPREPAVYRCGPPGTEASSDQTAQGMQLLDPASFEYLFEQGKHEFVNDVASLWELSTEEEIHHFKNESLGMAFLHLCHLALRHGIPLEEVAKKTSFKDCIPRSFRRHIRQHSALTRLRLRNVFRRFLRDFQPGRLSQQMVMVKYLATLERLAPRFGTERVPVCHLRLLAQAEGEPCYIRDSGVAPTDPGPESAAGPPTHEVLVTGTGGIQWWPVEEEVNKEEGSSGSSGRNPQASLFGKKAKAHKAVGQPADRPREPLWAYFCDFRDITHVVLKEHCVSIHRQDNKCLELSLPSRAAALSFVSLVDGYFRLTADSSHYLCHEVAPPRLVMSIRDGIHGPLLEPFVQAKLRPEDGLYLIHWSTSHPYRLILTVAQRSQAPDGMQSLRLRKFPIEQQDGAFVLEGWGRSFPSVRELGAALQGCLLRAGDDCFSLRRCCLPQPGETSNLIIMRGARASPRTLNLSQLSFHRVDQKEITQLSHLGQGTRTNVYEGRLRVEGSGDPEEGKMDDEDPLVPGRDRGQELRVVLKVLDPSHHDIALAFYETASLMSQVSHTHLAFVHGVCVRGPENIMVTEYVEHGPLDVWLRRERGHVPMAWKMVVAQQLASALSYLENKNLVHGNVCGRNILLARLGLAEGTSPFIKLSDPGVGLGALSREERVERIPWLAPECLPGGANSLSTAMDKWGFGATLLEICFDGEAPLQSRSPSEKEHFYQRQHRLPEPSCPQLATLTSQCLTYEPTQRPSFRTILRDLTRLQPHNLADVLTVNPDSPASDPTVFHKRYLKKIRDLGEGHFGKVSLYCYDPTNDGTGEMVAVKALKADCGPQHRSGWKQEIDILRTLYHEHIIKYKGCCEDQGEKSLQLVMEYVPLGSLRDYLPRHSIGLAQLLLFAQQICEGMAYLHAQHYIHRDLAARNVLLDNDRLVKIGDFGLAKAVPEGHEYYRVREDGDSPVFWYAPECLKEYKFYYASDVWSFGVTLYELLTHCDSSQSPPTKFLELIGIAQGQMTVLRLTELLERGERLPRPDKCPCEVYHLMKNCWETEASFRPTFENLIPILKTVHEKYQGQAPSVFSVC
Method in brief: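 TR-FRET readout (520/495 nm) using Tb-labelled pTyr701 antibody after EDTA stop, following 1 h ATP-started phosphorylation of GFP-STAT1 by recombinant GST-JAK. Compounds preincubated 1 h with enzyme and substrate; pIC50 from 4-parameter fit, Cheng-Prusoff gives pKi.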

[3] = tested on: oxazolone-induced colitis; experiment: Mouse model of oxazolone-induced colitis; type: in vivo; settings: 3 mg/kg (PO, BID)
Protocol: Oxazolone-induced colitis is an experimental model that has a histological resemblance to human ulcerative colitis (Heller et al. Immunology, 2002, 17, 629-638). Adult BALB/C mice from Harlan were used in the assay. On day 1, animals were lightly anesthetized with isoflurane and the hairs between the shoulder were carefully removed before oxazolone (4%, 150 μL, 4:1 acetone:olive oil formulation) or vehicle solution was slowly applied for skin sensitization. Seven days after skin sensitization, the mice were fasted around 6 hours prior, anesthetized with ketamine/xylazine injection, and a 1 mL syringe equipped with a 3.5-F catheter, filled with oxazolone solution, was inserted carefully about 4 cm into the colon of the mouse. Following insertion, 50 μL of the oxazolone solution (0.8% in 1:1 ethanol:water formulation) was injected very slowly (over 30 sec using an injection pump) into the colon. Drug treatment (PO, QD or BID or TID) or vehicle was initiated a day prior to the oxazolone intrarectal (IR) challenge. Two-day post oxazolone intrarectal challenge, the disease was assessed by treatment-blinded experimenters for each mouse according to the criteria score: stool consistency score (0, normal; 2, loose; 4, diarrhea), gross bleeding score (0, absence; 2, blood tinged; 4, presence); Combined stool score endpoint=stool consistency score+stool blood score.
Select compounds were tested in the assay.

[4] = target: T2, JAK2 (Homo sapiens, UniProt O60674); experiment: Biochemical JAK2 kinase assay (LanthaScreen); settings: read-out: JAK 2 (pKi) (converted)
T2 construct: GST; purchased Life Technologies
T2 sequence (O60674 whole entry): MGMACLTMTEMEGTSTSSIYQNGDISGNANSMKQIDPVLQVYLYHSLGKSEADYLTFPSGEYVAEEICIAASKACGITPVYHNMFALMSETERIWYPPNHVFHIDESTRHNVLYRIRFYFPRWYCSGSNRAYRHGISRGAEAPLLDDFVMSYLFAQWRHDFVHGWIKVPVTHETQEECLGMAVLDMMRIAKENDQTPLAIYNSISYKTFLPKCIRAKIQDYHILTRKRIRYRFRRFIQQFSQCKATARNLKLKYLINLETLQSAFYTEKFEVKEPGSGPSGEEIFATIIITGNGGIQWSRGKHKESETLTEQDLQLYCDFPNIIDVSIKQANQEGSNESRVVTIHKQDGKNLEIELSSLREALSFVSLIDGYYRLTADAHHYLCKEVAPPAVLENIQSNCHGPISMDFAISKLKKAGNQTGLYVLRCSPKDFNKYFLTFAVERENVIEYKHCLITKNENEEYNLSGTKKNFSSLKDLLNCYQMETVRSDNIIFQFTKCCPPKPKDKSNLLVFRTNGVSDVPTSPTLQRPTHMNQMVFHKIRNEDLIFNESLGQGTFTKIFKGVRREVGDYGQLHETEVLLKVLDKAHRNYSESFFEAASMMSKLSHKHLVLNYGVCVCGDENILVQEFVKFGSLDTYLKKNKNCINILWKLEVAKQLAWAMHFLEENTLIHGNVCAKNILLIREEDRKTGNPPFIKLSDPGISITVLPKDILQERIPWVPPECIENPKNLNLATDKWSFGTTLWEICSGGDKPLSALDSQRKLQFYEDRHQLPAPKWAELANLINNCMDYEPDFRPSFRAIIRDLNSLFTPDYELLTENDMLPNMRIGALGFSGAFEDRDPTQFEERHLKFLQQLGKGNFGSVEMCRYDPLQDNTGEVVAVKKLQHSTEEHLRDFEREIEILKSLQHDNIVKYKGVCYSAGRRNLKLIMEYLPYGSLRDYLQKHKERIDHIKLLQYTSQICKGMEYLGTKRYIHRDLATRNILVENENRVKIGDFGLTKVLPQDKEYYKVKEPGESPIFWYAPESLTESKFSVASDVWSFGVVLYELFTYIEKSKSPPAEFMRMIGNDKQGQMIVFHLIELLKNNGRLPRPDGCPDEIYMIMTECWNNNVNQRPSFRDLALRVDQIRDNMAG
Method in brief: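 GST-tagged recombinant JAK2 pre-incubated 1 h at ambient temperature with compound and GFP-STAT1 peptide in HEPES pH 7.5/MgCl2 buffer, then ATP added for a 1 h reaction with 1% DMSO. TR-FRET read after EDTA and Tb-anti-pSTAT1 (pTyr701) addition; IC50 from 4-parameter fit, converted to pKi by Cheng-Prusoff.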

[5] = tested on: IL-2 induced pSTAT5 in thymus; experiment: Systemic target engagement: murine model of IL-2 induced pSTAT5 induction in thymus; type: in vivo, mouse
Source text: IL-2 is an important cytokine underlying the pathophysiology of gastro-intestinal diseases such as […] bowel disease (IBD; Guan and Zhang. Mediators Inflamm, 2017; 4810258). IL-2 binds to cell surface receptors activating members of the Janus family of kinases (JAK), specifically JAK3, which then phosphorylates STAT5 and subsequently activates further transcription pathways. In this model, a dose of IL-2 was delivered systemically to mice to induce the phosphorylation of STAT5 (pSTAT5) which was then measured as the endpoint.
Adult male Balb/c mice from Harlan were used in the assay. Animals were administered test compound via oral gavage (PO, 10 or 30 mg/kg for single dose studies; 10-60 mg/kg for dose response studies) on the afternoon of the day prior to study and then in the morning on the day of study. Two hours after the second PO dose administration, mice were injected intraperitoneally (i.p.) with 100 μl of an appropriate IL-2 dose (for a total of 1-5 μg/mouse depending upon IL-2 batch; R&D Systems). 90-120 minutes after IL-2 insult, thymus samples were harvested.

Structure (SMILES)	Kp [1]	Ki [2]	combined stool score endpoint as compared with vehicle treated animals [3]	Ki [4]	inhibition of IL-2 induced pSTAT5 in thymus compared to vehicle ([5]; PO, 10, 30, 60 and 100 mg/kg)	inhibition of IL-2 induced pSTAT5 in thymus compared to vehicle ([5]; PO, 10, 30 and 60 mg/kg)	inhibition of IL-2 induced pSTAT5 in thymus compared to vehicle ([5]; PO, 30 and 100 mg/kg)	inhibition of IL-2 induced pSTAT5 in thymus compared to vehicle ([5]; PO, 30 mg/kg)	inhibition of IL-2 induced pSTAT5 in thymus compared to vehicle ([5]; PO, 10 mg/kg)
CN(C)C/C=C/C(=O)N1CC(COc2cc(-c3ccc(O)cc3)cc3[nH]ncc23)C1 [Compound 1, (E)-4-(dimethylamino)-1-(3-(((6-(4-hydroxyphenyl)-1H-indazol-4-yl)oxy)methyl)azetidin-1-yl)but-2-en-1-one]	> 1250	> 100 nM	statistically significant decrease	10 to 100 nM	no significant inhibition				
C=CC(=O)N1CC[C@H](Oc2cc(-c3ccc(O)c(Cl)c3)cc3[nH]ncc23)C1 [Compound 2, (S)-1-(3-((6-(3-chloro-4-hydroxyphenyl)-1H-indazol-4-yl)oxy)pyrrolidin-1-yl)prop-2-en-1-one]	> 1250	> 100 nM	statistically significant decrease	> 100 nM		no significant inhibition			
CN(C)C/C=C/C(=O)N1CC(C(C)(C)Oc2cc(-c3ccc(O)c(Cl)c3)cc3[nH]ncc23)C1 [Compound 3, (E)-1-(3-(2-((6-(3-chloro-4-hydroxyphenyl)-1H-indazol-4-yl)oxy)propan-2-yl)azetidin-1-yl)-4-(dimethylamino)but-2-en-1-one]	> 1250	> 100 nM	statistically significant decrease	> 100 nM			no significant inhibition		
C=CC(=O)N1CC(COc2nc(-c3ccc(O)cc3)nc3[nH]ncc23)C1 [Compound 4, 1-(3-(((6-(4-hydroxyphenyl)-1H-pyrazolo[3,4-d]pyrimidin-4-yl)oxy)methyl)azetidin-1-yl)prop-2-en-1-one]	> 1250	> 100 nM	statistically significant decrease	> 100 nM				no significant inhibition	
CN(C)C/C=C/C(=O)N1CC(COc2cc(-c3ccc(O)c(F)c3)cc3[nH]ncc23)C1 [Compound 5, (E)-4-(dimethylamino)-1-(3-(((6-(3-fluoro-4-hydroxyphenyl)-1H-indazol-4-yl)oxy)methyl)azetidin-1-yl)but-2-en-1-one]	> 200	> 100 nM	statistically significant decrease	10 to 100 nM				no significant inhibition	
C=CC(=O)N1CCO[C@@H](C(=O)Nc2cc(-c3ccc(O)cc3)cc3[nH]ncc23)C1 [Compound 6, (R)-4-acryloyl-N-(6-(4-hydroxyphenyl)-1H-indazol-4-yl)morpholine-2-carboxamide]	> 1250	> 100 nM	statistically significant decrease	10 to 100 nM					no significant inhibition
C=CC(=O)N1CC[C@H](COc2cc(-c3ccc(O)cc3)cc3[nH]ncc23)C1 [Compound 7, (S)-1-(3-(((6-(4-hydroxyphenyl)-1H-indazol-4-yl)oxy)methyl)pyrrolidin-1-yl)prop-2-en-1-one]	> 1250	> 100 nM	statistically significant decrease	10 to 100 nM					no significant inhibition
CN(C)C/C=C/C(=O)N1CC(C#N)(COc2cc(-c3ccc(O)c(F)c3)cc3[nH]ncc23)C1 [Compound 8, (E)-1-(4-(dimethylamino)but-2-enoyl)-3-(((6-(3-fluoro-4-hydroxyphenyl)-1Hindazol-4-yl)oxy)methyl)azetidine-3-carbonitrile]	> 1250	> 100 nM	statistically significant decrease	10 to 100 nM				no significant inhibition	
CN(C)C/C=C/C(=O)N1CCC(C)(Oc2cc(-c3ccc(O)cc3)cc3[nH]ncc23)CC1 [Compound 9, (E)-4-(dimethylamino)-1-(4-((6-(4-hydroxyphenyl)-1H-indazol-4-yl)oxy)-4-methylpiperidin-1-yl)but-2-en-1-one]	> 200								
C=CC(=O)N1CC(C(C)(C)Oc2cc(-c3ccc(O)cc3)nc3[nH]ncc23)C1 [Compound 20, 1-(3-(2-((6-(4-hydroxyphenyl)-1H-pyrazolo[3,4-b]pyridin-4-yl)oxy)propan-2-yl)azetidin-1-yl)prop-2-en-1-one]	> 200	> 100 nM		> 100 nM					
C=CC(=O)N1CC(C)(COc2nc(-c3ccc(O)c(F)c3)nc3[nH]ncc23)C1 [Compound 21, 1-(3-(((6-(3-fluoro-4-hydroxyphenyl)-1H-pyrazolo[3,4-d]pyrimidin-4-yl)oxy)methyl)-3-methylazetidin-1-yl)prop-2-en-1-one]	> 1250	> 100 nM	statistically significant decrease	> 100 nM					
C=CC(=O)N1CC(CC)(COc2cc(-c3ccc(O)cc3)nc3[nH]ncc23)C1 [Compound 22, 1-(3-ethyl-3-(((6-(4-hydroxyphenyl)-1H-pyrazolo[3,4-b]pyridin-4-yl)oxy)methyl)azetidin-1-yl)prop-2-en-1-one]	> 1250	> 100 nM		> 100 nM					
